Results as given in US12077503B2, “Substituted cyclic amides and their use as herbicides” (FMC CORPORATION, priority 2015, dated 2024).

Key:
Format in all cases: in vivo
[1] = tested on: barnyardgrass (Echinochloa crus-galli); assay: Test G Post-Emergence Protocol; conditions: Echinochloa crus-galli, post-emergence, 312 h, read-out: Barnyardgrass damage rating; for pest or weed control at 15.625 g/ha: 15.625 g ai/ha, evaluated after 13 days (100=total damage to plant; 0=no damage to plant); for pest or weed control at 62.5 g/ha: 62.5 g ai/ha; for pest or weed control at 62.5 g/ha / pest or weed control at 250 g/ha: evaluated after 13 days, 100=total damage to plant, 0=no damage to plant; for pest or weed control at 250 g/ha: 250 g ai/ha
How it was run: (§1)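 A glasshouse post-emergence test: 8-day-old plants sprayed at 15.625, 62.5 or 250 g/ha, then grown at 24/16 °C day/night with 14 h light and 65% humidity. Damage rated 13 days later, 0–100.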

[2] = tested on: redroot pigweed (Amaranthus retroflexus); assay: Test G Post-Emergence Protocol; conditions: Amaranthus retroflexus, post-emergence, 312 h, read-out: Pigweed, Redroot damage rating; for pest or weed control at 15.625 g/ha: 15.625 g ai/ha, evaluated after 13 days (100=total damage to plant; 0=no damage to plant); for pest or weed control at 62.5 g/ha: 62.5 g ai/ha; for pest or weed control at 62.5 g/ha / pest or weed control at 250 g/ha: evaluated after 13 days, 100=total damage to plant, 0=no damage to plant; for pest or weed control at 250 g/ha: 250 g ai/ha
How it was run: as §1

[3] = tested on: velvetleaf (Abutilon theophrasti); assay: Test G Post-Emergence Protocol; conditions: Abutilon theophrasti, post-emergence, 312 h, read-out: Velvetleaf damage rating; for pest or weed control at 15.625 g/ha: 15.625 g ai/ha, evaluated after 13 days (100=total damage to plant; 0=no damage to plant); for pest or weed control at 62.5 g/ha: 62.5 g ai/ha; for pest or weed control at 62.5 g/ha / pest or weed control at 250 g/ha: evaluated after 13 days, 100=total damage to plant, 0=no damage to plant; for pest or weed control at 250 g/ha: 250 g ai/ha
How it was run: as §1

[4] = tested on: ivy-leaved morning glory (Ipomoea hederacea); assay: Test G Post-Emergence Protocol; conditions: Ipomoea, post-emergence, 312 h, read-out: Morningglory, Ivy-leaved damage rating; for pest or weed control at 15.625 g/ha: 15.625 g ai/ha, evaluated after 13 days (100=total damage to plant; 0=no damage to plant); for pest or weed control at 62.5 g/ha: 62.5 g ai/ha; for pest or weed control at 62.5 g/ha / pest or weed control at 250 g/ha: evaluated after 13 days, 100=total damage to plant, 0=no damage to plant; for pest or weed control at 250 g/ha: 250 g ai/ha
How it was run: as §1

[5] = tested on: giant foxtail (Setaria faberi); assay: Test G Post-Emergence Protocol; conditions: Setaria faberi, post-emergence, 312 h, read-out: Foxtail, Giant damage rating; for pest or weed control at 15.625 g/ha: 15.625 g ai/ha, evaluated after 13 days (100=total damage to plant; 0=no damage to plant); for pest or weed control at 62.5 g/ha: 62.5 g ai/ha
How it was run: as §1

[6] = tested on: corn (Zea mays); assay: Test G Post-Emergence Protocol; conditions: Zea mays, post-emergence, 312 h, read-out: Corn damage rating; for plant injury at 15.625 g/ha: 15.625 g ai/ha, evaluated after 13 days (100=total damage to plant; 0=no damage to plant); for plant injury at 62.5 g/ha: 62.5 g ai/ha; for plant injury at 62.5 g/ha / plant injury at 250 g/ha: evaluated after 13 days, 100=total damage to plant, 0=no damage to plant; for plant injury at 250 g/ha: 250 g ai/ha
How it was run: as §1

[7] = tested on: barnyardgrass (Echinochloa crus-galli); assay: Test G Pre-Emergence Protocol; conditions: Echinochloa crus-galli, pre-emergence, 312 h, evaluated after 13 days; for pest or weed control at 15.625 g/ha: 15.625 g ai/ha; for pest or weed control at 15.625 g/ha / pest or weed control at 250 g/ha: read-out: Barnyardgrass damage rating (100=total damage to plant; 0=no damage to plant); for pest or weed control at 62.5 g/ha: 62.5 g ai/ha, 100=total damage to plant, 0=no damage to plant, read-out: Barnyardgrass damage rating; for pest or weed control at 250 g/ha: 250 g ai/ha
How it was run: (§2)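 Under a 24/16° C day/night regime with 14 h light and 65% humidity, sown pots were sprayed after one day with compound (15.625, 62.5 or 250 g/ha; 50:50 acetone/water, 0.5% Tween 20). Damage was assessed visually 13 days later, 0 to 100.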

[8] = tested on: redroot pigweed (Amaranthus retroflexus); assay: Test G Pre-Emergence Protocol; conditions: Amaranthus retroflexus, pre-emergence, 312 h, evaluated after 13 days; for pest or weed control at 15.625 g/ha: 15.625 g ai/ha; for pest or weed control at 15.625 g/ha / pest or weed control at 250 g/ha: read-out: Pigweed, Redroot damage rating (100=total damage to plant; 0=no damage to plant); for pest or weed control at 62.5 g/ha: 62.5 g ai/ha, 100=total damage to plant, 0=no damage to plant, read-out: Pigweed, Redroot damage rating; for pest or weed control at 250 g/ha: 250 g ai/ha
How it was run: as §2

[9] = tested on: velvetleaf (Abutilon theophrasti); assay: Test G Pre-Emergence Protocol; conditions: Abutilon theophrasti, pre-emergence, 312 h, evaluated after 13 days; for pest or weed control at 15.625 g/ha: 15.625 g ai/ha; for pest or weed control at 15.625 g/ha / pest or weed control at 250 g/ha: read-out: Velvetleaf damage rating (100=total damage to plant; 0=no damage to plant); for pest or weed control at 62.5 g/ha: 62.5 g ai/ha, 100=total damage to plant, 0=no damage to plant, read-out: Velvetleaf damage rating; for pest or weed control at 250 g/ha: 250 g ai/ha
How it was run: as §2

[10] = tested on: ivy-leaved morning glory (Ipomoea hederacea); assay: Test G Pre-Emergence Protocol; conditions: Ipomoea, pre-emergence, 312 h, evaluated after 13 days; for pest or weed control at 15.625 g/ha: 15.625 g ai/ha; for pest or weed control at 15.625 g/ha / pest or weed control at 250 g/ha: read-out: Morningglory, Ivy-leaved damage rating (100=total damage to plant; 0=no damage to plant); for pest or weed control at 62.5 g/ha: 62.5 g ai/ha, 100=total damage to plant, 0=no damage to plant, read-out: Morningglory, Ivy-leaved damage rating; for pest or weed control at 250 g/ha: 250 g ai/ha
How it was run: as §2

[11] = tested on: giant foxtail (Setaria faberi); assay: Test G Pre-Emergence Protocol; conditions: Setaria faberi, pre-emergence, 312 h, evaluated after 13 days; for pest or weed control at 15.625 g/ha: 15.625 g ai/ha; for pest or weed control at 15.625 g/ha / pest or weed control at 250 g/ha: read-out: Foxtail, Giant damage rating (100=total damage to plant; 0=no damage to plant); for pest or weed control at 62.5 g/ha: 62.5 g ai/ha, 100=total damage to plant, 0=no damage to plant, read-out: Foxtail, Giant damage rating; for pest or weed control at 250 g/ha: 250 g ai/ha
How it was run: as §2

[12] = tested on: corn (Zea mays); assay: Test G Pre-Emergence Protocol; conditions: Zea mays, pre-emergence, 312 h, evaluated after 13 days; for plant injury at 15.625 g/ha: 15.625 g ai/ha; for plant injury at 15.625 g/ha / plant injury at 250 g/ha: read-out: Corn damage rating (100=total damage to plant; 0=no damage to plant); for plant injury at 62.5 g/ha: 62.5 g ai/ha, 100=total damage to plant, 0=no damage to plant, read-out: Corn damage rating; for plant injury at 250 g/ha: 250 g ai/ha
How it was run: as §2

[13] = evaluated after 13 days, 100=total damage to plant, 0=no damage to plant

Row | SMILES | pest or weed control at 15.625 g/ha [1] | pest or weed control at 62.5 g/ha [1] | pest or weed control at 250 g/ha [1] | pest or weed control at 15.625 g/ha [2] | pest or weed control at 62.5 g/ha [2] | pest or weed control at 250 g/ha [2] | pest or weed control at 15.625 g/ha [3] | pest or weed control at 62.5 g/ha [3] | pest or weed control at 250 g/ha [3] | pest or weed control at 15.625 g/ha [4] | pest or weed control at 62.5 g/ha [4] | pest or weed control at 250 g/ha [4] | pest or weed control at 15.625 g/ha [5] | pest or weed control at 62.5 g/ha [5, 13] | plant injury at 15.625 g/ha [6] | plant injury at 62.5 g/ha [6] | plant injury at 250 g/ha [6] | pest or weed control at 15.625 g/ha [7] | pest or weed control at 62.5 g/ha [7] | pest or weed control at 250 g/ha [7] | other results
1 | Cc1cc([C@H]2CN(C)C(=O)[C@@H]2C(=O)Nc2cccc(F)n2)cc(C(F)(F)F)c1 (racemic) [Compound 1801] | 20% | 60% | 70% | 0% | 0% | 40% | 0% | 0% | 0% | 0% | 10% | 50% | 70% | 80% | 10% | 70% | 80% | 40% | 80% | 90% | pest or weed control at 250 g/ha ([5]; 250 g ai/ha, evaluated after 13 days, 100=total damage to plant, 0=no damage to plant): 80%; pest or weed control at 15.625 g/ha [8]: 0%; pest or weed control at 62.5 g/ha [8]: 20%; pest or weed control at 250 g/ha [8]: 40%; pest or weed control at 15.625 g/ha [9]: 0%; pest or weed control at 62.5 g/ha [9]: 10%; pest or weed control at 250 g/ha [9]: 20%; pest or weed control at 15.625 g/ha [10]: 0%; pest or weed control at 62.5 g/ha [10]: 0%; pest or weed control at 250 g/ha [10]: 40%; pest or weed control at 15.625 g/ha [11]: 80%; pest or weed control at 62.5 g/ha [11]: 90%; pest or weed control at 250 g/ha [11]: 90%; plant injury at 15.625 g/ha [12]: 10%; plant injury at 62.5 g/ha [12]: 40%; plant injury at 250 g/ha [12]: 80%
2 | CN1C[C@H](c2cc(F)cc(F)c2)[C@@H](C(=O)Nc2cnccc2C(F)(F)F)C1=O (racemic) [Compound 1741] | 0% | 0% | 70% | 0% | 0% | 0% | 0% | 0% | 10% | 0% | 30% | 10% | 50% | 80% | 0% | 0% | 0% | 0% | 40% | 70% | pest or weed control at 15.625 g/ha [8]: 10%; pest or weed control at 62.5 g/ha [8]: 20%; pest or weed control at 250 g/ha [8]: 30%; pest or weed control at 15.625 g/ha [9]: 0%; pest or weed control at 62.5 g/ha [9]: 30%; pest or weed control at 250 g/ha [9]: 60%; pest or weed control at 15.625 g/ha [10]: 0%; pest or weed control at 62.5 g/ha [10]: 0%; pest or weed control at 250 g/ha [10]: 0%; pest or weed control at 15.625 g/ha [11]: 0%; pest or weed control at 62.5 g/ha [11]: 90%; pest or weed control at 250 g/ha [11]: 90%; plant injury at 15.625 g/ha [12]: 0%; plant injury at 62.5 g/ha [12]: 10%; plant injury at 250 g/ha [12]: 30%
